Test results as given in patent US20130310352A1, “DEXAMETHASONE COMBINATION THERAPY” (priority 2010, published 2013).

Assays:
Format in all cases: cell-based, human
MM.1S cells [1] = assay: Apoptosis with or without IL-6 addition (positive control); details: 40 μg/ml dexamethasone, rhIL-6
Protocol: IL-6 is an important survival cytokine for MM (Klein B, Zhang X G, Jourdan M, et al. Interleukin-6 is the central tumor growth factor in vitro and in vivo in multiple myeloma. Eur Cytokine Netw. 1990; 1 (4):193-201; Gado K, Domjan G, Hegyesi H, Falus A. Role of INTERLEUKIN-6 in the pathogenesis of multiple myeloma. Cell Biol Int. 2000; 24 (4):195-209). […] For this purpose, different MM cell lines ARP1, MM.1S and MM.1R were cultured with or without recombinant hIL-6 (final concentration […]) and treated with or without 10 μM compound A for 2 days. As a positive control, MM.1S cells were treated with 40 μg/ml of dexamethasone with or without hIL-6 addition for the same period of time.
(§1) MM cell lines ARP1, MM.1S and MM.1R were cultured with 10 μM compound A for 3 days. rhIL-6 were added to final concentration of 5 ng/ml. As a positive control, MM.1S cells were treated with 40 μg/ml dexamethasone in the presence of 5 ng/ml of rhIL6 for the same time. Cells apoptosis rate was measured by annexin V staining. (B). Same MM cells were co-cultured with or without MM BMSC, and treated with 10 μM of compound A for 1 day. As a positive control, MM.1S cells were cocultured with or without BMSC and treated with 40 μg/ml dexamethasone for 1 day. CD138+ MM cells apoptosis rate was measured by Annexin V staining.

[2] = tested on: MM cells ARP1, MM.1S and MM.1R; assay: Low-dose single agents, apoptosis; details: 40 μg/ml dexamethasone alone, 1 day
Protocol: Compound A-induced cell apoptosis was detected by Annexin V binding assay as previously described (Zheng Y, Cai Z, Wang S, et al. Macrophages are an abundant component of myeloma microenvironment and protect myeloma cells from chemotherapy drug-induced apoptosis. Blood. 2009; 114 (17):3625-3628). Briefly, MM cells were cultured in 24-well plates and treated with 0 to 1 mM final concentrations of compound A for 24 or 72 hours. The cells were washed twice with cold PBS and resuspended in Annexin V binding buffer (Invitrogen). MM cells were stained with FITC-conjugated Annexin V and propidium iodide (PI) for 15 min at room temperature. Apoptotic cells were determined as Annexin V positive cells.
Next, the experiment was extended to other MM cell lines, and they were treated with low compound A (1 μM) and dexamethasone (40 μg/ml).
ARP1 cells were treated with 10 μM compound A (BK), 15 nM melphalan (Me), 40 μg/ml dexamethasone (De), 100 μM lenalidomide (Le), 10 μM Bortizomib (BT), or their combinations for 1 day. The cell apoptosis were measured as described. […] Cell apoptosis was measured. […] Same MM cell lines were treated with compound A for 1 day and cell growth were measured by MTS. […] Cell apoptosis were measured by annexin V staining. […] Cells apoptosis rates were measured by annxin V staining. […]

MM.1S cells [3] = assay: Apoptosis in coculture with BMSCs (positive control); details: 40 μg/ml dexamethasone, 24 hours, BMSC coculture
Protocol: For this purpose, BMSCs isolated from MM patient were cocultured with MM cell lines ARP1, MM.1S and MM.1R. The cells were treated with or without 10 μM of compound A for 24 hours. As a positive control, MM.1S cells were cocultured with or without BMSC and treated with or without 40 μg/ml of dexamethasone for 24 hours. After treatment, the MM cells were identified as CD138+ cells by APC-CD138 staining.
as §1

For `C[C@@H]1C[C@H]2[C@@H]3CCC4=CC(=O)C=C[C@]4(C)[C@@]3(F)[C@@H](O)C[C@]2(C)[C@@]1(O)C(=O)CO` [dexamethasone, (8S,9R,10S,11S,13S,14S,16R,17R)-9-Fluoro-11,17-dihydroxy-17-(2-hydroxyacetyl)-10,13,16-trimethyl-6,7,8,9,10,11,12,13,14,15,16,17-dodecahydro-3H-cyclopenta[a]phenanthren-3-one], the “effect of IL6 addition under dexamethasone treatment” value (MM.1S cells [1]) was “promoted MM.1S cells survival”, the “cytotoxic effect of low dose alone” value [2] was “only limited cytotoxic effect” and the “effect of BMSCs on dexamethasone induced cell apoptosis” value (MM.1S cells [3]) was “protected MM.1S cells”.
